Experimental data reported in patent US10550102B2, “Indane and indoline derivatives and the use thereof as soluble guanylate cyclase activators” (NOVARTIS AG, priority 2014, dated 2020).

molecular target: soluble guanylate cyclase (human GUCYA3 and GUCYB3) overexpressed in CHO cells (Homo sapiens (Human), UniProt Q02108+Q02153); experiment: CHO cellular assay (cGMP production, Cisbio cGMP HTRF kit); assay type: cell-based; details: CHO GUCY clone 8E10, cGMP production, assay buffer with 1 mM IBMX and 20 uM ODQ, 1 h room temperature; minimum quantification limit 0.5 nM (listed 0.5 nM means ≤0.5 nM); read-out: EC50
Summary of the method: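 Stable CHO-K1 clone 8E10 expressing human sGC (GUCYA3/GUCYB3), 3000 cells/well, exposed 1 h at room temperature to activators in HBSS, 0.1% BSA, 1 mM IBMX, 20 uM ODQ, 0.5% DMSO final. cGMP was measured by HTRF and interpolated from a standard curve. EC50 came from a 4-parameter sigmoidal fit.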

Chain of soluble guanylate cyclase (human GUCYA3 and GUCYB3) overexpressed in CHO cells (Q02108 whole entry partner): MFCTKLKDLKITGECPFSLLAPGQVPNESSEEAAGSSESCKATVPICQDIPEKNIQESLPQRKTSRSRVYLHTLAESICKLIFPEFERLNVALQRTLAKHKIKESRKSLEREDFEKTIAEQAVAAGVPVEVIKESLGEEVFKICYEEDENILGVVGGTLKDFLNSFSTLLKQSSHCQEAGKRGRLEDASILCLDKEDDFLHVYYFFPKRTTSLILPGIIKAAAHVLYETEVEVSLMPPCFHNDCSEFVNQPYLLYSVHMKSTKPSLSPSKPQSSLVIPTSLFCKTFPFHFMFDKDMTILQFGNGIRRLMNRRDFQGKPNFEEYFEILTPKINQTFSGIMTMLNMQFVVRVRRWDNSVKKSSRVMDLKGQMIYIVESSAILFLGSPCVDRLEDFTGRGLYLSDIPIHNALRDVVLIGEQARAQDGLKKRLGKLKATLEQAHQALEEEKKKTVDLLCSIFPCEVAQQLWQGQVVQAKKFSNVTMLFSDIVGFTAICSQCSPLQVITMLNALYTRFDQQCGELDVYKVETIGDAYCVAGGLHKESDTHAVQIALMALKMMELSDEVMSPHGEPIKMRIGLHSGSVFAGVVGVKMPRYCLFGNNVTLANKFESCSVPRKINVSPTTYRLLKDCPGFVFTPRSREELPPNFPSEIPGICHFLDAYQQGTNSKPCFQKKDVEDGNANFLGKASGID
Chain of soluble guanylate cyclase (human GUCYA3 and GUCYB3) overexpressed in CHO cells (Q02153 whole entry): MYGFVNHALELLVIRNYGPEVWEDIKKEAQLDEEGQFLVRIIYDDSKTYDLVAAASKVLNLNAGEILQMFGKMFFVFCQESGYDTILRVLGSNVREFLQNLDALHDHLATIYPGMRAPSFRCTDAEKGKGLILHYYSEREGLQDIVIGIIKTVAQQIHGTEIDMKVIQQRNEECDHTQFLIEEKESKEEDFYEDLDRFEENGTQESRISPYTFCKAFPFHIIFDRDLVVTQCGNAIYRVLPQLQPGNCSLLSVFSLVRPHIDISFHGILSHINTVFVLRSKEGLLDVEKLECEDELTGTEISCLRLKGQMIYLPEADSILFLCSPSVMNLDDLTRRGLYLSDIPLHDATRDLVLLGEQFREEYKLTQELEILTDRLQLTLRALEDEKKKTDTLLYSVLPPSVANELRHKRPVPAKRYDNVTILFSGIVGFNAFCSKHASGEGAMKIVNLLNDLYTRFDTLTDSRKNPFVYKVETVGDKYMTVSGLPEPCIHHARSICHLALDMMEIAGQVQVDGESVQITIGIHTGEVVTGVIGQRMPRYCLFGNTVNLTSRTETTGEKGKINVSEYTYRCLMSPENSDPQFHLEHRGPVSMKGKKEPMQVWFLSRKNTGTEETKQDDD

**Q.** For Cc1cc(C2CCN(C(=O)C3CCC3)CC2)ccc1NC1CCc2cccc(-c3cccc(-n4ncc(C(=O)O)c4C)n3)c21 (single isomer, unassigned; (-)) [Example 45b], which EC50 is on record?
**A.** 3.5 nM

**Q.** Cc1cc(C2CCN(C(=O)[C@H](C)O)CC2)ccc1NC1CCc2cccc(-c3cccc(-n4ncc(C(=O)O)c4C)n3)c21 (single isomer, unassigned; (-)) [Example 47b] was tested. Which EC50 did it give?
**A.** 27 nM

**Q.** How did the EC50 turn out when CCc1nc(NC2CCc3cccc(-c4cccc(-n5ncc(C(=O)O)c5CC)n4)c32)ccc1C1CCN(C(=O)C2CC2)CC1 (single isomer, unassigned; (-)) [Example 63b, (−)-1-(6-(3-((5-(1-(Cyclopropanecarbonyl)piperidin-4-yl)-6-ethylpyridin-2-yl)amino)-2,3-dihydro-1H-inden-4-yl)pyridin-2-yl)-5-ethyl-1H-pyrazole-4-carboxylic Acid] was run?
**A.** 60 nM

**Q.** For Cc1cc(C2CCN(C(=O)C3CC3)CC2)ccc1OC1CCc2cccc(-c3cccc(-n4ncc(C(=O)O)c4C(F)(F)F)c3)c21 (single isomer, unassigned; (-)) [Example (−)-1. b), (−)-1-(3-(3-(4-(1-(cyclopropanecarbonyl)piperidin-4-yl)-2-methylphenoxy)-2,3-dihydro-1H-inden-4-yl)phenyl)-5-(trifluoromethyl)-1H-pyrazole-4-carboxylic acid], which EC50 is on record?
**A.** 10 nM

**Q.** For Cc1cc(C2CCN(C(=O)C3CC3)CC2)ccc1NC1CCc2cccc(-c3cccc(-n4ncc(C(=O)O)c4C(F)(F)F)n3)c21 (single isomer, unassigned; (-)) [Example (−)-8. b), (−)-1-(6-(3-((4-(1-(cyclopropanecarbonyl)piperidin-4-yl)-2-methylphenyl)amino)-2,3-dihydro-1H-inden-4-yl)pyridin-2-yl)-5-(trifluoromethyl)-1H-pyrazole-4-carboxylic Acid], which EC50 is on record?
**A.** 53 nM

**Q.** How did the EC50 turn out when Cc1cc(C2CCN(C(=O)C3CC3)CC2)ccc1O[C@H]1CCc2cccc(-c3cccc(-n4ncc(C(=O)O)c4C)c3)c21 [Example 2, (+)-(S)-1-(3-(3-(4-(1-(Cyclopropanecarbonyl)piperidin-4-yl)-2-methylphenoxy)-2,3-dihydro-1H-inden-4-yl)phenyl)-6-methyl-1H-pyrazole-4-carboxylic Acid] was run?
**A.** 1 nM

**Q.** With Cc1cc2c(c(-c3cccc(-n4ncc(C(=O)O)c4C(F)(F)F)n3)c1)C(Oc1ccc3c(c1)CCN(Cc1ccccn1)C3)CC2 (stereo not drawn) [Example 5-1] as the compound, how does the EC50 read?
**A.** 39 nM

**Q.** Which EC50 does the source give for Cc1cc2c(c(-c3cccc(-n4ncc(C(=O)O)c4C(F)(F)F)n3)c1)C(Oc1ccc(C3CCN(C(=O)C4CC4)CC3)cc1C)CC2 (stereo not drawn) [Example 5-2] here?
**A.** 1 nM

**Q.** How did the EC50 turn out when CCc1cc(O[C@H]2CCc3cccc(-c4cccc(-n5ncc(C(=O)O)c5C(F)(F)F)n4)c32)ccc1C1CCN(C(=O)C2CC2)CC1 [Example 5-3] was run?
**A.** ≤ 0.5 nM

**Q.** Cc1cc(C2CCN(CC(F)(F)F)CC2)ccc1O[C@H]1CCc2cccc(-c3cccc(-n4ncc(C(=O)O)c4C(F)(F)F)n3)c21 [Example 5-4] was tested. Which EC50 did it give?
**A.** 2 nM

**Q.** Cc1cc(C2CCN(C(=O)C3CC3)CC2)ccc1O[C@H]1CCc2cccc(-c3cccc(-n4cc(C(=O)O)cn4)n3)c21 [Example 5-5] was tested. Which EC50 did it give?
**A.** 2.4 nM

**Q.** Which EC50 does the source give for Cc1cc(C2CCN(C(=O)C3CC3)CC2)ccc1O[C@H]1CCc2cccc(-c3cccc(-n4ncc(C(=O)O)c4C)n3)c21 [Example 5-6] here?
**A.** ≤ 0.5 nM

**Q.** CCc1c(C(=O)O)cnn1-c1cccc(-c2cccc3c2[C@@H](Oc2ccc(C4CCN(C(=O)C5CC5)CC4)cc2C)CC3)n1 [Example 5-7] was tested. Which EC50 did it give?
**A.** ≤ 0.5 nM

**Q.** CCc1c(C(=O)O)cnn1-c1cccc(-c2cccc3c2[C@@H](Oc2ccc(C4CCN(CC(F)(F)F)CC4)cc2C)CC3)n1 [Example 5-8] was tested. Which EC50 did it give?
**A.** 1 nM

**Q.** How did the EC50 turn out when CCc1cc(O[C@H]2CCc3cccc(-c4cccc(-n5ncc(C(=O)O)c5CC)n4)c32)ccc1C1CCN(C(=O)C2CC2)CC1 [Example 5-9] was run?
**A.** ≤ 0.5 nM

**Q.** For O=C(O)c1cnn(-c2cccc(-c3cccc4c3C(Nc3ccc(C5CCN(C(=O)C6CC6)CC5)cc3)CC4)n2)c1C(F)(F)F (stereo not drawn) [Example 11-2], which EC50 is on record?
**A.** 1 nM

**Q.** With CCc1c(C(=O)O)cnn1-c1cccc(-c2cccc3c2C(Nc2ccc(C4CCN(CC(F)(F)F)CC4)cc2C)CC3)n1 (stereo not drawn) [Example 11-3] as the compound, how does the EC50 read?
**A.** 1.4 nM

**Q.** For O=C(O)c1cnn(-c2cccc(-c3cccc4c3N(Cc3ccc(C5CCN(C(=O)C6CC6)CC5)cc3)CC4)n2)c1C(F)(F)F [Example 12, 1-(6-(1-(4-(1-(Cyclopropanecarbonyl)piperidin-4-yl)benzyl)indolin-7-yl)pyridin-2-yl)-5-(trifluoromethyl)-1H-pyrazole-4-carboxylic Acid], which EC50 is on record?
**A.** 1 nM

**Q.** How did the EC50 turn out when CCc1cc(CN2CCc3cccc(-c4cccc(-n5ncc(C(=O)O)c5C(F)(F)F)n4)c32)ccc1C1CCN(C(=O)C2CC2)CC1 [Example 13] was run?
**A.** ≤ 0.5 nM

**Q.** For CCc1cc(CN2CCc3cccc(-c4cccc(-n5ncc(C(=O)O)c5CC)n4)c32)ccc1C1CCN(C(=O)C2CC2)CC1 [Example 14, 1-(6-(1-(4-(1-(Cyclopropanecarbonyl)piperidin-4-yl)-3-ethylbenzyl)indolin-7-yl)pyridin-2-yl)-5-ethyl-1H-pyrazole-4-carboxylic Acid], which EC50 is on record?
**A.** ≤ 0.5 nM

**Q.** CCc1cc(CN2CCc3cccc(-c4cccc(-n5ncc(C(=O)O)c5C(F)(F)F)n4)c32)ccc1C1CCN(CC(F)(F)F)CC1 [Example 15] was tested. Which EC50 did it give?
**A.** 1.5 nM

**Q.** Which EC50 does the source give for CCc1cc(CN2CCc3cccc(-c4cccc(-n5ncc(C(=O)O)c5CC)n4)c32)ccc1C1CCN(CC(F)(F)F)CC1 [Example 16, 5-Ethyl-1-(6-(1-(3-ethyl-4-(1-(2,2,2-trifluoroethyl)piperidin-4-yl)benzyl)indolin-7-yl)pyridin-2-yl)-1H-pyrazole-4-carboxylic Acid] here?
**A.** 3.5 nM

**Q.** CCc1c(C(=O)O)cnn1-c1cccc(-c2cccc3c2N(Cc2ccc(C4CCN(C(=O)[C@H](C)O)CC4)cc2C)CC3)n1 [Example 18, (S)-5-Ethyl-1-(6-(1-(4-(1-(2-hydroxypropanoyl)piperidin-4-yl)-2-methylbenzyl)indolin-7-yl)pyridin-2-yl)-1H-pyrazole-4-carboxylic Acid] was tested. Which EC50 did it give?
**A.** 1.4 nM

**Q.** How did the EC50 turn out when CCc1c(C(=O)O)cnn1-c1cccc(-c2cccc3c2N(Cc2ccc(C4CCN(C(=O)C5CC5)CC4)cc2C)CC3)n1 [Example 21-2, 1-(6-(1-(4-(1-(Cyclopropanecarbonyl)piperidin-4-yl)-2-methylbenzyl)indolin-7-yl)pyridin-2-yl)-5-ethyl-1H-pyrazole-4-carboxylic acid] was run?
**A.** ≤ 0.5 nM

**Q.** How did the EC50 turn out when CCc1cc(CN2CC(C)(C)c3cccc(-c4cccc(-n5ncc(C(=O)O)c5CC)n4)c32)ccc1C1CCN(C(=O)C2CC2)CC1 [Example 23] was run?
**A.** 2 nM

**Q.** For Cc1cc(C2CCN(C3CC3)CC2)ccc1CN1CCc2cccc(-c3cccc(-n4ncc(C(=O)O)c4C)n3)c21 [Example 24, 1-(6-(1-(4-(1-Cyclopropylpiperidin-4-yl)-2-methylbenzyl)indolin-7-yl)pyridin-2-yl)-5-methyl-1H-pyrazole-4-carboxylic Acid], which EC50 is on record?
**A.** 7.9 nM

**Q.** Which EC50 does the source give for O=C(O)c1cnn(-c2cccc(-c3cccc4c3N(Cc3ccc5c(c3)CCN(Cc3ccccn3)C5)CC4)n2)c1C(F)(F)F [Example 25, 1-(6-(1-((2-(Pyridin-2-ylmethyl)-1,2,3,4-tetrahydroisoquinolin-6-yl)methyl)indolin-7-yl)pyridin-2-yl)-5-(trifluromethyl)-1H-pyrazole-4-carboxylic Acid] here?
**A.** 2.4 nM

**Q.** For O=C(O)c1cnn(-c2cccc(-c3cccc4ccn(Cc5ccc(C6CCN(C(=O)C7CC7)CC6)cc5)c34)n2)c1C(F)(F)F [Example 26, 1-(6-(1-(4-(1-(Cyclopropanecarbonyl)piperidin-4-yl)benzyl)-1H-indol-7-yl)pyridin-2-yl)-5-(trifluoromethyl)-1H-pyrazole-4-carboxylic Acid], which EC50 is on record?
**A.** 21 nM

**Q.** How did the EC50 turn out when CCc1cc(Cn2ccc3cccc(-c4cccc(-n5ncc(C(=O)O)c5CC)n4)c32)ccc1C1CCN(C(=O)C2CC2)CC1 [Example 27] was run?
**A.** ≤ 0.5 nM

**Q.** With CCOC(=O)N1CCC(c2ccc(O[C@H]3CCc4cccc(-c5cccc(-n6ncc(C(=O)O)c6CC)n5)c43)cc2CC)CC1 [Example 29, (S)-1-(6-(3-(4-(1-(Ethoxycarbonyl)piperidin-4-yl)-3-ethylphenoxy)-2,3-dihydro-1H-inden-4-yl)pyridin-2-yl)-5-ethyl-1H-pyrazole-4-carboxylic Acid] as the compound, how does the EC50 read?
**A.** 1 nM

**Q.** For CCc1cc(O[C@H]2CCc3cccc(-c4cccc(-n5ncc(C(=O)O)c5CC)n4)c32)ccc1C1CCN(C(=O)[C@H](C)O)CC1 [Example 30], which EC50 is on record?
**A.** ≤ 0.5 nM

**Q.** How did the EC50 turn out when CCC[C@H](O)C(=O)N1CCC(c2ccc(O[C@H]3CCc4cccc(-c5cccc(-n6ncc(C(=O)O)c6CC)n5)c43)cc2CC)CC1 [Example 31-1] was run?
**A.** ≤ 0.5 nM

**Q.** CCc1cc(O[C@H]2CCc3cccc(-c4cccc(-n5ncc(C(=O)O)c5CC)n4)c32)ccc1C1CCN(C(=O)[C@@H](O)CC)CC1 [Example 31-2] was tested. Which EC50 did it give?
**A.** ≤ 0.5 nM

**Q.** For CCc1cc(O[C@H]2CCc3cccc(-c4cccc(-n5ncc(C(=O)O)c5CC)n4)c32)ccc1C1CCN(C(=O)[C@@H](C)CO)CC1 [Example 31-3, 5-Ethyl-1-(6-((S)-3-(3-ethyl-4-(1-((S)-3-hydroxy-2-methylpropanoyl)piperidin-4-yl)phenoxy)-2-3-dihydro-1H-inden-4-yl)pyridin-2-yl)-1H-pyrazole-4-carboxylic acid], which EC50 is on record?
**A.** ≤ 0.5 nM

**Q.** How did the EC50 turn out when CCc1cc(O[C@H]2CCc3cccc(-c4cccc(-n5ncc(C(=O)O)c5CC)n4)c32)ccc1C1CCN(C(=O)C2(O)CCC2)CC1 [Example 31-4, (S)-5-Ethyl-1-(6-(3-(3-ethyl-4-(1-(1-hydroxycyclobutanecarbonyl)piperidin-4-yl)phenoxy)-2,3-dihydro-1H-inden-4-yl)pyridin-2-yl)-1H-pyrazole-4-carboxylic acid] was run?
**A.** ≤ 0.5 nM

**Q.** How did the EC50 turn out when CCc1cc(O[C@H]2CCc3cccc(-c4cccc(-n5ncc(C(=O)O)c5CC)n4)c32)ccc1C1CCN(C(=O)C2(O)CC2)CC1 [Example 33, (S)-5-ethyl-1-(6-(3-(3-ethyl-4-(1-(1-hydroxycyclopropanecarbonyl)piperidin-4-yl)phenoxy)-2,3-dihydro-1H-inden-4-yl)pyridin-2-yl)-1H-pyrazole-4-carboxylic Acid] was run?
**A.** ≤ 0.5 nM
